In data set [1] the target is T1, mushroom tyrosinase (Agaricus bisporus, UniProt C7FF04). The data set can be described thus: Mushroom tyrosinase inhibitory assay (L-tyrosine substrate). It counts as biochemical. Particulars: for inhibition at 50 µM / Tyrosinase Inhibition (%): L-tyrosine as substrate, mean ± SEM, NI means no inhibition, 50 μM. As for the experimental part:
The experiment was repeated three times. Mushroom tyrosinase inhibitions % were calculated using:% Inhibition = [1 − (A/B)] × 100(1) where A is the absorbance of the test compound and B is the absorbance of the blank.
Log-linear curves were plotted, and their equations were determined.
Target sequence in this assay (C7FF04 1-392 limits assumed): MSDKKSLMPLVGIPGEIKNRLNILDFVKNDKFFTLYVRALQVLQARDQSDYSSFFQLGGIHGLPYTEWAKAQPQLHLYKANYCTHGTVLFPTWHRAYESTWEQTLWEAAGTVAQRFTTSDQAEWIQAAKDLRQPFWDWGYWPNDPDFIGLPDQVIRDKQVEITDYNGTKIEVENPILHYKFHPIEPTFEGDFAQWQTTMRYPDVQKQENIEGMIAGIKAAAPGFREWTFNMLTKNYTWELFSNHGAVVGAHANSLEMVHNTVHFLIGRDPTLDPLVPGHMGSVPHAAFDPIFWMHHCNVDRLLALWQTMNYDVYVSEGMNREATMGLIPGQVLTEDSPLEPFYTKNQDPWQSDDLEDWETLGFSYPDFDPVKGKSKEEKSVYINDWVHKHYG

Data set [2] deals with B16F10 melanoma cells. Also noted: method as in PMID 28726389. Particulars: B16F10 melanoma cells ref 70; cited from earlier work.
The subject of data set [3] is B16F10 melanoma cells. Also noted: method as in Su and co-workers. Conditions: at the same concentration (20 µM) ref Su and co-workers; cited from earlier work.
Data set [4] deals with T1, mushroom tyrosinase. The experiment in a line: Kinetic analysis of mushroom tyrosinase inhibition, Lineweaver–Burk plots. It is filed as biochemical. As for the experimental part:
Briefly, 170 μL of a mixture of an aqueous solution of L-[…].0, 2.0, 4.0, or 8.0 mM and 50 mM of potassium phosphate (pH 6.5) was added to a 96-well plate. […] Lineweaver-Burk plots were used to determine Vmax (maximal reaction rates) and KM (Michaelis-Menten constants) of mushroom tyrosinase activities.
Target sequence in this assay (C7FF04 1-392): as the sequence (C7FF04 1-392 limits assumed) above

Data set [5] is described as follows: EZ-cytox cell viability assay. Conditions: mouse, B16F10 melanoma cells, 20 µM. It counts as cell-based, murine. As for the experimental part: (§1) EZ-cytox assays were performed to examine whether these compounds are cytotoxic.
(§2) B16F10 murine melanoma cells were purchased from the American Type Culture Collection (ATCC, Manassas, VA, USA). Cells were cultured in Dulbecco’s modified Eagle’s medium (10% fetal bovine serum (FBS), and 1% streptomycin) obtained from Gibco/Thermo Fisher Scientific (Carlsbad, CA, USA) at 37 °C in a 5% CO2 environment. These cultured cells were used for cell viability, melanin content, and cellular tyrosinase inhibitory assays.
(§3) EZ-cytox assays were performed on 1c, 1h, and 2a, according to previously described. B16F10 cells were seeded in a 96-well plate at a density of 5 × 10^4 cells/well and incubated at 37 °C in a humidified 5% CO2 atmosphere overnight. Cells were then treated with different concentrations of 1c, 1h, or 2a (0, 1, 2, 5, 10, or 20 µM) and incubated for 24 h under the same conditions. EZ-cytox solution (10 µL) was then added and the plate was incubated for 3 h at 37 °C in a humidified 5% CO2 atmosphere. Optical densities of wells were measured at 450 nm using an ELISA reader. All experiments were independently repeated three times.

Data set [6] has as its system B16F10 melanoma cells. The data set can be described thus: EZ-cytox cell viability assay. It counts as cell-based, murine. Particulars: 1–20 µM, 24 h. As for the experimental part: as §1, §2, §3

“And” between values parts separate entries of the source, which are not always exact repeats. Identical values can stand only once. Like-named read-outs stand apart in the source and are kept apart here.

A word on the inhibition: it is the share of the control response that was lost under treatment. Regarding `O=c1oc2cc(O)ccc2c2ccccc12` [Compound 1a, 3-Hydroxy-6H-benzo[c]chromen-6-one], the inhibition at 50 µM at mushroom tyrosinase [1] is less than 0%. Besides, the “Tyrosinase Inhibition (%)” value at mushroom tyrosinase [1] (listed as urolithin B) is “did not inhibit tyrosinase”; at mushroom tyrosinase [1] (listed as urolitin B) it was “did not show inhibitory activity”. Besides, the Antimelanogenic effect entry with B16F10 melanoma cells [2] is reported as “antimelanogenic effects through tyrosinase inhibition”. Further, the “Cytotoxicity compared with 1c and 1h” value in the data set on B16F10 melanoma cells [3] is listed as “higher cytotoxicity”.

At mushroom tyrosinase [1], `O=c1oc2cc(O)ccc2c2ccc(O)cc12` [Compound 1e, 3,8-Dihydroxy-6H-benzo[c]chromen-6-one] yielded an inhibition at 50 µM of less than 0%. In addition, the “Tyrosinase Inhibition (%)” value on mushroom tyrosinase [1] (listed as urolithin A) is listed as “did not show inhibitory activity”. Further, the Antimelanogenic effect entry in the data set with B16F10 melanoma cells [2] is “antimelanogenic effects through tyrosinase inhibition”. Also, in the data set with B16F10 melanoma cells [3], the “Cytotoxicity compared with 1c and 1h” value is recorded as “higher cytotoxicity”.

In general, IC50 refers to the concentration that inhibits the measured activity by half. One may read the Vmax as the rate approached at saturating substrate. In general, viability refers to a read-out of living cells in per cent, often relative to untreated cells. A higher viability goes with less harm to the cells. The compound `COc1ccc2c(c1)c(=O)oc1cc(O)cc(O)c12` [Compound 1h, 1,3-Dihydroxy-8-methoxy-6H-benzo[c]chromen-6-one] displayed an IC50 at mushroom tyrosinase [1] of 4.14 ± 0.1 µM. Further, the “Inhibition (%), single determinations” value at mushroom tyrosinase [1] (0.78 μM) is 15.61% and 18.94%; on mushroom tyrosinase [1] (1.56 μM), 24.63% and 31.11%; at mushroom tyrosinase [1] (3.13 μM), 48.92%; at mushroom tyrosinase [1] (6.25 μM), 63.95% and 66.79%. The inhibition at 0.78 µM came to 16.7 ± 1.1% at mushroom tyrosinase [1] (0.78 μM, read-out: Average of Inhibition (%)) and 15.7% at mushroom tyrosinase [1] (0.78 μM, read-out: Inhibition (%), single determinations). Besides, the inhibition at 1.56 µM is 28 ± 1.88% at mushroom tyrosinase [1] (1.56 μM, read-out: Average of Inhibition (%)) and 28.3% at mushroom tyrosinase [1] (1.56 μM, read-out: Inhibition (%), single determinations). Also, the inhibition at 3.13 µM on mushroom tyrosinase [1] (3.13 μM, read-out: Average of Inhibition (%)) is 48.78 ± 0.07%; on mushroom tyrosinase [1] (3.13 μM, read-out: Inhibition (%), single determinations), 48.7%. In addition, the inhibition at 6.25 µM stood at 64.9 ± 0.94% on mushroom tyrosinase [1] (6.25 μM, read-out: Average of Inhibition (%)) and 64% at mushroom tyrosinase [1] (6.25 μM, read-out: Inhibition (%), single determinations). In addition, on mushroom tyrosinase [1], the “Tyrosinase Inhibition (%)” value turned out to be 94.86 ± 0.16%. This compound had an inhibition at 50 µM against mushroom tyrosinase [1] of 95%. Besides, the “Mode of tyrosinase inhibition” value at mushroom tyrosinase [4] (Lineweaver–Burk analysis, L-tyrosine as substrate) was “competitive inhibitors”. Besides, the “Vmax” value at mushroom tyrosinase [4] (inhibitor 2.5 μM, L-tyrosine 1.0–8.0 mM) is 0.031 mM/min; on mushroom tyrosinase [4] (inhibitor 5 μM, L-tyrosine 1.0–8.0 mM), 0.031 mM/min; at mushroom tyrosinase [4] (inhibitor 10 μM, L-tyrosine 1.0–8.0 mM) it was 0.031 mM/min; on mushroom tyrosinase [4] (not dependent on inhibitor concentration), 0.031 mM/min. In addition, in data set [5], the viability at 24 h, 20 µM was found to be 70.8%. Further, the Cytotoxic effect entry in the data set on B16F10 melanoma cells [6] is given as “weakly cytotoxic”.
